Results reported in US4007267A, “Antibiotic B-98891” (priority 1974, dated 1977).
Converted amounts (≈) assume the structure as drawn. Read-outs that look alike come from different tables or passages of the source.

What was measured:
[1] = tested on: Mycobacterium phlei IFO-3158; assay: Antimicrobial spectrum (in vitro), agar dilution and diffusion methods; format: cell-based; details: medium C, 37 °C, time 40
Experimental: (§1) The antimicrobial spectrum of the antibiotic B-98891 as measured by the agar dilution and diffusion methods is shown in Table 3. The "diameter of inhibition zone" in the table represents the diameter of the inhibition zone formed around a paper disc(7 mm. in diameter) immersed in a 5000 μg/ml. solution of the present antibiotic.
(§2) C 3.0 % glycerin, 0.5 % Ehrlich's meat extract, 0.5 % polypeptone, 0.5 % NaCl, 1.5 % agar (pH 7.0)

[2] = tested on: Mycobacterium smegmatis ATCC-607; assay: as above; format: cell-based; details: medium C, 37 °C, time 40
Experimental: as §1, §2

[3] = tested on: Pyricularia oryzae IFO-5279; format: cell-based; details: medium A, 28 °C, time 40
[4] = tested on: Phytophthora infestans (Montagne) de Bary; format: in vivo
[5] = tested on: Sphaerotheca fuliginea (Schlechtendahl) Pollacci; assay: Control test of powdery mildew of oriental melon; format: in vivo
[6] = tested on: Sclerotinia sclerotiorum IFO-9395; assay: Antimicrobial spectrum (in vitro), agar dilution and diffusion methods; format: cell-based; details: medium A, 28 °C, time 40
[7] = tested on: powdery mildew of apple plant; assay: Control test of powdery mildew of apple plant; format: in vivo; details: 12 days
Experimental: (§3) The control chemical was also similarly diluted with water.
The seedlings of the apple (Malus pumila Miller var. domestica Schneider f. Rall's Janet) in their 5- to 8-leaf stage were employed. The pathogenic fungi on diseased leaves of an apple plant were dusted over the tops of the seedlings which, then, were kept in a green-house. […] After the application, the seedlings were further grown in a green-house. After 12 days, the percent area of the lesion was investigated. The test was conducted in hexaplicate for each group.

powdery mildew of rose = assay: Control test of the powdery mildew of rose (Arlene Francis); format: in vivo
Experimental: For this test, rose (Rosa spp.) plants were grown in pots at a green-house.As test plants (forma species: Super Star and Arlene Francis) were used in groups of 3 pots per treatment. […] The number of diseased leaflets on three branches per pot was investigated 7 days after the third application and the percentage of diseased leaflets relative to the total number of leaflets investigated was calculated.

[8] = tested on: Sphaerotheca fuliginea Pollacci; assay: Control effect against drug-resistant powdery mildew on cucumber; details: 40 ppm, 7 days
Description: as §3
The leaves of a cucumber plant (Cucumis sativus L. f. Suyo) infected with powdery mildew were flipped over a 1-month cucumber plant in a pot so that the latter was inoculated with Sphaerotheca fuliginea Pollacci. After 1 day, the fungicidal solutions prepared in the same manner as Test Example 1 were sprayed in sufficient volume over the plant. After about 14 days, the fungal growth formed were used to further inoculate intact cucumber plants. One day after the inoculation, fungicidal solution was sprayed and, after 7 days, the percent area of the lesion was determined.

SMILES: NC(N)=NCC(O)CC(O)(C(=O)O)[C@H]1O[C@@H](n2cc(CO)c(N)nc2=O)C=C[C@@H]1NC(=O)[C@@H](N)CO (some centres unmarked) [B-98891]
- Minimal inhibitory concentration [1]: 50 µg/mL (≈ 97.2 µM)
- Diameter of inhibition zone ([1]; paper disc 7 mm, 5000 μg/ml): 27 mm
- Minimal inhibitory concentration [2]: 250 µg/mL (≈ 486 µM)
- Diameter of inhibition zone ([2]; paper disc 7 mm, 5000 μg/ml): 24 mm
- Minimal inhibitory concentration [3]: > 500 µg/mL
- Degree of sporulation ([4]; 250 ppm): Moderate
- Percent area of lesions ([4]; 250 ppm): 100%
- Degree of sporulation ([4]; 500 ppm): None
- Percent area of lesions ([4]; 500 ppm): 0%
- Percent area of the lesion ([5]; 40 ppm, 7 days): 0%
- Percent area of the lesion ([5]; 40 ppm, 14 days): 19.0%
- Percent area of the lesion ([5]; 40 ppm, 21 days): 40.0%
- Percent area of the lesion ([5]; 80 ppm, 7 days): 1.5%
- Percent area of the lesion ([5]; 80 ppm, 14 days): 7.0%
- Percent area of the lesion ([5]; 80 ppm, 21 days): 24.0%
- Percent area of the lesion ([5]; 160 ppm, 7 days): 0.6%
- Percent area of the lesion ([5]; 160 ppm, 14 days): 0.6%
- Percent area of the lesion ([5]; 160 ppm, 21 days): 5.0%
- Minimal inhibitory concentration [6]: 500 µg/mL (≈ 972 µM)
- Diameter of inhibition zone ([6]; paper disc 7 mm, 5000 μg/ml): 20 mm
- Percent area of the lesion ([7]; 40 ppm): 0.9%
- Percent area of the lesion ([7]; 80 ppm): 0.6%
- Percent area of the lesion ([7]; 160 ppm): 0%
- Percent of diseased leaflet (powdery mildew of rose; 40 ppm): 14.9%
- Percent of diseased leaflet (powdery mildew of rose; 80 ppm): 6.7%
- Percent of diseased leaflet (powdery mildew of rose; 160 ppm): 2.2%
- Percent area of lesion ([8]; inoculum: control (untreated)): 15.8%
- Percent area of lesion ([8]; inoculum: lesions after application of B-98891 (80ppm)): 18.3%
- Percent area of lesion ([8]; inoculum: lesions after application of Benlate WP (250 ppm)): 21.7%
